# Laboratory results: patent US12533339B2, “Small molecule antiviral drug treatment for human papillomavirus infections” (THE TRUSTEES OF INDIANA UNIVERSITY, priority 2020, dated 2026)
# Like-named read-outs stand apart in the source and are kept apart here.
# Columns and labels:
# E6C51S/E6AP [1] = biological target: T1, E6C51S/E6AP (Human papillomavirus type 16, UniProt P03126, C58S); experiment: E6/E6AP binding assay (amylose-bound MBP-16E6, E6AP-BAP activity), C51S 16E6; parameters: species or system HPV-16; settings: for % Inhibition @ 10 μM E6C51S/E6AP: 10 μM compound; for % Inhibition @ 100 μM E6C51S/E6AP: 100 μM compound
# T1 sequence (P03126 whole entry C58S, looked up): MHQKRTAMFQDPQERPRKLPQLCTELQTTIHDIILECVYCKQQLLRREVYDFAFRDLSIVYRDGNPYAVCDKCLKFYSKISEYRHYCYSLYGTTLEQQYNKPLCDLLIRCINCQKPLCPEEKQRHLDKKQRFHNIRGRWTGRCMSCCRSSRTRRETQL
# E6 WT/E6AP [2] = biological target: T2, E6 WT/E6AP (Human papillomavirus type 16, UniProt P03126); experiment: biochemical; type: binding; settings: WT 16E6; for inhibition at 10 µM: 10 μM compound; for inhibition at 100 µM: 100 μM compound
# T2 sequence (P03126 8-158): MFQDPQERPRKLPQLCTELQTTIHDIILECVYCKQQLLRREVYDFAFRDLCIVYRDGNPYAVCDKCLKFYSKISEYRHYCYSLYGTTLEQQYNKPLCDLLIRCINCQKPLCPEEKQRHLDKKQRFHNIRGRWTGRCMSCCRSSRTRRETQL
# E6C51S/E6AP [3] = biological target: T1, E6C51S/E6AP; experiment: BLI binding assay, E6 C51S binding to captured E6AP; parameters: species or system HPV-16; settings: for loss of ability to inhibit mutant form E6-Cys51Ser (BLI), in words: FIG. 1B; for BLI maximal Inhibition (max %) E6C51S/E6AP: at 24 h, E6 C51S
# wild-type E6 = wild-type E6 (Human papillomavirus type 16, UniProt P03126); type: binding; settings: 100 μM for 16 hr at 4° C., FIG. 1A top
# Sequence of wild-type E6 (P03126 8-158): as above
# E6 WT/E6AP [4] = biological target: T2, E6 WT/E6AP; experiment: biochemical; type: binding; settings: for Emax: E6 WT, read-out: BLI maximal Inhibition (max %) E6 WT/E6AP
# E6 Cys51Ser mutant = E6 Cys51Ser mutant (Human papillomavirus type 16, UniProt P03126, C58S); experiment: Whole protein ESI mass spectrometry, adduct with E6 Cys51Ser mutant; type: binding, HPV-16; settings: 100 μM for 16 hr at 4° C., FIG. 1A bottom
# Sequence of E6 Cys51Ser mutant (P03126 8-158 C58S): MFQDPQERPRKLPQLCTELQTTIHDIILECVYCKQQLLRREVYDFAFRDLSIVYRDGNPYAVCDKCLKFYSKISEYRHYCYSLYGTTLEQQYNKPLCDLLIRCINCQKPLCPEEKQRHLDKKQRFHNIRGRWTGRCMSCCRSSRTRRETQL
# E6 WT/E6AP [5] = biological target: T2, E6 WT/E6AP; experiment: biochemical; type: binding; settings: for Emax: 24 h, read-out: FP maximal inhibition (max %) E6 WT/E6AP
# E6C51S/E6AP [6] = biological target: T1, E6C51S/E6AP; experiment: Fluorescence Polarization (FP) assay, MBP-E6 C51S with labeled peptide; type: binding, HPV-16; settings: at 24 h
# RPE-1 cells = experiment: Colony formation, crystal violet absorbance at 590 nm; type: cell-based; settings: RPE-1 cells (no HPV), 14 days, normalized to DMSO, FIG. 6
# Procedure: FIG. 6 depicts colony formation capabilities of SiHa, CaSki or RPE-1 cells in the presence of the indicated concentrations of EIN-166. Fifty cells were seeded and incubated with DMSO or EIN-166. After 14 days, cells were fixed and stained with crystal violet. Stained colonies were dissolved and absorbance at 590 nm was measured. Treatments were normalized to DMSO. Data expressed as S.E.M and *P<0.05 (n=3).
SMILES,% Inhibition @ 10 μM E6C51S/E6AP (E6C51S/E6AP [1]),% Inhibition @ 100 μM E6C51S/E6AP (E6C51S/E6AP [1]),inhibition at 10 µM (E6 WT/E6AP [2]),inhibition at 100 µM (E6 WT/E6AP [2]),BLI maximal Inhibition (max %) E6C51S/E6AP (E6C51S/E6AP [3]),Emax (E6 WT/E6AP [4]; at 24 h),Emax (E6 WT/E6AP [5]),also measured
"Cc1ccccc1C1c2ccsc2CCN1CC(=O)N1CCCN(C(=O)CCl)CC1 (stereo not shown) [EIN-116, 2-chloro-1-(4-(2-(4-(o-tolyl)-6,7-dihydrothieno[3,2-c]pyridin-5(4H)-yl)acetyl)-1,4-diazepan-1-yl)ethan-1-one]",5 ± 5%,36 ± 11%,29 ± 8%,74 ± 3%,(max 100%),100%,–,"loss of ability to inhibit mutant form E6-Cys51Ser (BLI), in words (E6C51S/E6AP [3]): partly; adduct formation with wild-type E6 (wild-type E6): formed an adduct; inhibition of E6 binding to E6AP (BLI), in words (E6 WT/E6AP [4]; E6 WT with increasing concentration of compound): inhibited E6 binding to E6AP in a concentration-dependent manner; adduct formation with E6 Cys51Ser mutant (E6 Cys51Ser mutant): not with E6 Cys51Ser mutant"
"C=CC(=O)N1CCCN(C(=O)CN2CCc3sccc3C2c2ccccc2C)CC1 (stereo not shown) [EIN-122, 1-(4-(2-(4-(o-tolyl)-6,7-dihydrothieno[3,2-c]pyridin-5(4H)-yl)acetyl)-1,4-diazepan-1-yl)prop-2-en-1-one]",–,–,0%,97 ± 1%,–,100%,–,"loss of ability to inhibit mutant form E6-Cys51Ser (BLI), in words (E6C51S/E6AP [3]): nearly completely lost; IC50 (E6 WT/E6AP [4]; at 24 h, 2 μM E6 WT pre-incubated with compound): 62.7 ± 12.1 µM"
"O=C(CCl)N1CCN(c2nc(CCc3ccccc3)nc3sc4c(c23)CCCC4)CC1 [EIN-125, 2-chloro-1-(4-(2-phenethyl-5,6,7,8-tetrahydrobenzo[4,5]thieno[2,3-d]pyrimidin-4-yl)piperazin-1-yl)ethan-1-one]",32 ± 11%,62 ± 1%,54 ± 13%,102 ± 10%,(max 100%),100%,–,–
"C=CC(=O)N1CCN(c2nc(CCc3ccccc3)nc3sc4c(c23)CCCC4)CC1 [EIN-132, 1-(4-(2-phenethyl-5,6,7,8-tetrahydrobenzo[4,5]thieno[2,3-d]pyrimidin-4-yl)piperazin-1-yl)prop-2-en-1-one]",0%,19 ± 5%,3.5 ± 2%,61 ± 2%,(max 100%),100%,–,–
"C=CC(=O)N1CCN(c2nc(Cc3ccc(F)cc3)nc3sc4c(c23)CCCC4)CC1 [EIN-146, 1-(4-(2-(4-fluorobenzyl)-5,6,7,8-tetrahydrobenzo[4,5]thieno[2,3-d]pyrimidin-4-yl)piperazin-1-yl)prop-2-en-1-one]",11 ± 7%,15 ± 8%,16 ± 4%,30 ± 3%,(max 100%),100%,20%,–
"C=CC(=O)N1CCN(c2nc(CCc3cccc(OC)c3)nc3sc4c(c23)CCCCC4)CC1 [EIN-150, 1-(4-(2-(3-methoxyphenethyl)-6,7,8,9-tetrahydro-5H-cyclohepta[4,5]thieno[2,3-d]pyrimidin-4-yl)piperazin-1-yl)prop-2-en-1-one]",–,–,–,–,(max 100%),100%,57%,–
"C=CC(=O)N1CCN(c2nc(CCc3cccc(OC)c3)nc3sccc23)CC1 [EIN-152, 1-(4-(2-(3-methoxyphenethyl)thieno[2,3-d]pyrimidin-4-yl)piperazin-1-yl)prop-2-en-1-one]",–,–,–,–,(max 60%),100%,98%,FP maximal inhibition (max %) E6C51S/E6AP (E6C51S/E6AP [6]): (max 100%)
"C=CC(=O)N1CCN(c2nc(CCc3cccc(OC)c3)nc3ccccc23)CC1 [EIN-154, 1-(4-(2-(3-methoxyphenethyl)quinazolin-4-yl)piperazin-1-yl)prop-2-en-1-one]",–,–,–,–,(max 75%),100%,93%,–
"COc1cccc(CCc2nc(N3CCN(C(=O)/C=C/CN(C)C)CC3)c3ccccc3n2)c1 [EIN-155, (E)-4-(dimethylamino)-1-(4-(2-(3-methoxyphenethyl)quinazolin-4-yl)piperazin-1-yl)but-2-en-1-one]",–,–,–,–,(max 100%),100%,100%,–
"C=CC(=O)N1CCN(c2nc(-c3ccccc3)nc3ccccc23)CC1 [EIN-157, 1-(4-(2-phenylquinazolin-4-yl)piperazin-1-yl)prop-2-en-1-one]",–,–,–,–,(max 100%),100%,–,–
"C=CC(=O)N1CCN(C(=O)CN2CCc3ccccc3C2c2ccccc2C)CC1 (stereo not shown) [EIN-166, 1-(4-(2-(1-(o-tolyl)-3,4-dihydroisoquinolin-2(1H)-yl)acetyl)piperazin-1-yl)prop-2-en-1-one]",–,–,–,–,–,–,100%,IC50 (E6 WT/E6AP [5]; FP IC50 at 24 h (μM) E6 WT/E6AP): 73.4 ± 3.7 µM; colony formation capability (RPE-1 cells): no significant changes
